ChEMBL document CHEMBL5303573, “Mapping human microbiome drug metabolism by gut bacteria and their genes” (Nature, 2019)

Conditions: bacteroides intestinalis, 12 h, 2 µM
Description: The drug is tested on Bacteroides intestinalis strain: DSM17393 for biotransformation. The drug concentrations were measured before and after a 12-h incubation by liquid-chromatography-coupled mass spectrometry (LC–MS)

| Compound | Bacterial Biotransformation |
| --- | --- |
| CCC1(c2ccc(N)cc2)CCC(=O)NC1=O (stereo not given) [AMINOGLUTETHIMIDE] | Compound NOT metabolized |
| OC(CCN1CCCCC1)(c1ccccc1)C1CC2C=CC1C2 (stereo not given) [BIPERIDEN] | Compound NOT metabolized |
| CC(C)(C#N)c1cc(Cn2cncn2)cc(C(C)(C)C#N)c1 [ANASTROZOLE] | Compound NOT metabolized |
| CN1C(=O)CCS(=O)(=O)C1c1ccc(Cl)cc1 (stereo not given) [CHLORMEZANONE] | Compound NOT metabolized |

Conditions: bacteroides fragilis, 12 h, 2 µM
Description: The drug is tested on Bacteroides fragilis strain: 3397 (T10) for biotransformation. The drug concentrations were measured before and after a 12-h incubation by liquid-chromatography-coupled mass spectrometry (LC–MS)

| Compound | Bacterial Biotransformation |
| --- | --- |
| OC(CCN1CCCCC1)(c1ccccc1)C1CC2C=CC1C2 (stereo not given) [BIPERIDEN] | Compound NOT metabolized |
| CC(C)(C#N)c1cc(Cn2cncn2)cc(C(C)(C)C#N)c1 [ANASTROZOLE] | Compound metabolized |
| CN1C(=O)CCS(=O)(=O)C1c1ccc(Cl)cc1 (stereo not given) [CHLORMEZANONE] | Compound NOT metabolized |

Assay: The drug is tested on Enterobacter cancerogenus strain: ATCC35316 for biotransformation. The drug concentrations were measured before and after a 12-h incubation by liquid-chromatography-coupled mass spectrometry (LC–MS)
Conditions: 2 µM

| Compound | Bacterial Biotransformation |
| --- | --- |
| CCC1(c2ccc(N)cc2)CCC(=O)NC1=O (stereo not given) [AMINOGLUTETHIMIDE] | Compound NOT metabolized |
| OC(CCN1CCCCC1)(c1ccccc1)C1CC2C=CC1C2 (stereo not given) [BIPERIDEN] | Compound NOT metabolized |
| CC(C)(C#N)c1cc(Cn2cncn2)cc(C(C)(C)C#N)c1 [ANASTROZOLE] | Compound NOT metabolized |
| CN1C(=O)CCS(=O)(=O)C1c1ccc(Cl)cc1 (stereo not given) [CHLORMEZANONE] | Compound NOT metabolized |

Assay: The drug is tested on Clostridium sporogenes strain: ATCC15579 for biotransformation. The drug concentrations were measured before and after a 12-h incubation by liquid-chromatography-coupled mass spectrometry (LC–MS)
Conditions: 2 µM

| Compound | Bacterial Biotransformation |
| --- | --- |
| OC(CCN1CCCCC1)(c1ccccc1)C1CC2C=CC1C2 (stereo not given) [BIPERIDEN] | Compound NOT metabolized |
| CC(C)(C#N)c1cc(Cn2cncn2)cc(C(C)(C)C#N)c1 [ANASTROZOLE] | Compound metabolized |
| CN1C(=O)CCS(=O)(=O)C1c1ccc(Cl)cc1 (stereo not given) [CHLORMEZANONE] | Compound NOT metabolized |

Assay: The drug is tested on Ruminococcus lactaris strain: ATCC29176 for biotransformation. The drug concentrations were measured before and after a 12-h incubation by liquid-chromatography-coupled mass spectrometry (LC–MS)
Conditions: 2 µM

| Compound | Bacterial Biotransformation |
| --- | --- |
| CCC1(c2ccc(N)cc2)CCC(=O)NC1=O (stereo not given) [AMINOGLUTETHIMIDE] | Compound NOT metabolized |
| OC(CCN1CCCCC1)(c1ccccc1)C1CC2C=CC1C2 (stereo not given) [BIPERIDEN] | Compound NOT metabolized |
| CC(C)(C#N)c1cc(Cn2cncn2)cc(C(C)(C)C#N)c1 [ANASTROZOLE] | Compound NOT metabolized |

Conditions: parabacteroides distasonis, 12 h, 2 µM
Description: The drug is tested on Parabacteroides distasonis strain: ATCC8503 for biotransformation. The drug concentrations were measured before and after a 12-h incubation by liquid-chromatography-coupled mass spectrometry (LC–MS)

| Compound | Bacterial Biotransformation |
| --- | --- |
| CN1C(=O)CCS(=O)(=O)C1c1ccc(Cl)cc1 (stereo not given) [CHLORMEZANONE] | Compound NOT metabolized |

Assay: The drug is tested on Bifidobacterium longum subsp. Infantis strain: CCUG52486 for biotransformation. The drug concentrations were measured before and after a 12-h incubation by liquid-chromatography-coupled mass spectrometry (LC–MS)
Conditions: 2 µM

| Compound | Bacterial Biotransformation |
| --- | --- |
| CCC1(c2ccc(N)cc2)CCC(=O)NC1=O (stereo not given) [AMINOGLUTETHIMIDE] | Compound NOT metabolized |
| OC(CCN1CCCCC1)(c1ccccc1)C1CC2C=CC1C2 (stereo not given) [BIPERIDEN] | Compound NOT metabolized |
| CC(C)(C#N)c1cc(Cn2cncn2)cc(C(C)(C)C#N)c1 [ANASTROZOLE] | Compound NOT metabolized |
| CN1C(=O)CCS(=O)(=O)C1c1ccc(Cl)cc1 (stereo not given) [CHLORMEZANONE] | Compound NOT metabolized |

Assay: The drug is tested on Bacteroides xylanisolvens strain: DSM18836 for biotransformation. The drug concentrations were measured before and after a 12-h incubation by liquid-chromatography-coupled mass spectrometry (LC–MS)
Conditions: 2 µM

| Compound | Bacterial Biotransformation |
| --- | --- |
| CCC1(c2ccc(N)cc2)CCC(=O)NC1=O (stereo not given) [AMINOGLUTETHIMIDE] | Compound NOT metabolized |
| CC(C)(C#N)c1cc(Cn2cncn2)cc(C(C)(C)C#N)c1 [ANASTROZOLE] | Compound metabolized |
| CN1C(=O)CCS(=O)(=O)C1c1ccc(Cl)cc1 (stereo not given) [CHLORMEZANONE] | Compound NOT metabolized |

Assay: The drug is tested on Bacteroides caccae strain: ATCC43185 for biotransformation. The drug concentrations were measured before and after a 12-h incubation by liquid-chromatography-coupled mass spectrometry (LC–MS)
Conditions: 2 µM

| Compound | Bacterial Biotransformation |
| --- | --- |
| CCC1(c2ccc(N)cc2)CCC(=O)NC1=O (stereo not given) [AMINOGLUTETHIMIDE] | Compound NOT metabolized |
| OC(CCN1CCCCC1)(c1ccccc1)C1CC2C=CC1C2 (stereo not given) [BIPERIDEN] | Compound NOT metabolized |
| CC(C)(C#N)c1cc(Cn2cncn2)cc(C(C)(C)C#N)c1 [ANASTROZOLE] | Compound metabolized |
| CN1C(=O)CCS(=O)(=O)C1c1ccc(Cl)cc1 (stereo not given) [CHLORMEZANONE] | Compound NOT metabolized |

Conditions: anaerostipes sp., 12 h, 2 µM
Description: The drug is tested on Anaerostipes sp. strain: fecal isolate for biotransformation. The drug concentrations were measured before and after a 12-h incubation by liquid-chromatography-coupled mass spectrometry (LC–MS)

| Compound | Bacterial Biotransformation |
| --- | --- |
| CCC1(c2ccc(N)cc2)CCC(=O)NC1=O (stereo not given) [AMINOGLUTETHIMIDE] | Compound NOT metabolized |
| OC(CCN1CCCCC1)(c1ccccc1)C1CC2C=CC1C2 (stereo not given) [BIPERIDEN] | Compound NOT metabolized |
| CC(C)(C#N)c1cc(Cn2cncn2)cc(C(C)(C)C#N)c1 [ANASTROZOLE] | Compound NOT metabolized |
| CN1C(=O)CCS(=O)(=O)C1c1ccc(Cl)cc1 (stereo not given) [CHLORMEZANONE] | Compound NOT metabolized |

Assay: The drug is tested on Collinsella aerofaciens strain: ATCC25986 for biotransformation. The drug concentrations were measured before and after a 12-h incubation by liquid-chromatography-coupled mass spectrometry (LC–MS)
Conditions: 2 µM

| Compound | Bacterial Biotransformation |
| --- | --- |
| CCC1(c2ccc(N)cc2)CCC(=O)NC1=O (stereo not given) [AMINOGLUTETHIMIDE] | Compound NOT metabolized |
| OC(CCN1CCCCC1)(c1ccccc1)C1CC2C=CC1C2 (stereo not given) [BIPERIDEN] | Compound NOT metabolized |
| CC(C)(C#N)c1cc(Cn2cncn2)cc(C(C)(C)C#N)c1 [ANASTROZOLE] | Compound NOT metabolized |
| CN1C(=O)CCS(=O)(=O)C1c1ccc(Cl)cc1 (stereo not given) [CHLORMEZANONE] | Compound NOT metabolized |

Assay: The drug is tested on Coprococcus comes strain: ATCC27758 for biotransformation. The drug concentrations were measured before and after a 12-h incubation by liquid-chromatography-coupled mass spectrometry (LC–MS)
Assay type: ADME
Set-up: dose 2 uM, timepoint 0 vs 12 hours
Conditions: 2 µM

| Compound | Bacterial Biotransformation |
| --- | --- |
| CCC1(c2ccc(N)cc2)CCC(=O)NC1=O (stereo not given) [AMINOGLUTETHIMIDE] | Compound NOT metabolized |
| OC(CCN1CCCCC1)(c1ccccc1)C1CC2C=CC1C2 (stereo not given) [BIPERIDEN] | Compound NOT metabolized |
| CC(C)(C#N)c1cc(Cn2cncn2)cc(C(C)(C)C#N)c1 [ANASTROZOLE] | Compound NOT metabolized |

Conditions: bacteroides thetaiotaomicron, 12 h, 2 µM
Description: The drug is tested on Bacteroides thetaiotaomicron strain: 3731 for biotransformation. The drug concentrations were measured before and after a 12-h incubation by liquid-chromatography-coupled mass spectrometry (LC–MS)

| Compound | Bacterial Biotransformation |
| --- | --- |
| CCC1(c2ccc(N)cc2)CCC(=O)NC1=O (stereo not given) [AMINOGLUTETHIMIDE] | Compound NOT metabolized |
| OC(CCN1CCCCC1)(c1ccccc1)C1CC2C=CC1C2 (stereo not given) [BIPERIDEN] | Compound NOT metabolized |
| CC(C)(C#N)c1cc(Cn2cncn2)cc(C(C)(C)C#N)c1 [ANASTROZOLE] | Compound NOT metabolized |

Assay: The drug is tested on Odoribacter splanchnicus strain: fecal isolate for biotransformation. The drug concentrations were measured before and after a 12-h incubation by liquid-chromatography-coupled mass spectrometry (LC–MS)
Conditions: 2 µM

| Compound | Bacterial Biotransformation |
| --- | --- |
| CCC1(c2ccc(N)cc2)CCC(=O)NC1=O (stereo not given) [AMINOGLUTETHIMIDE] | Compound NOT metabolized |
| OC(CCN1CCCCC1)(c1ccccc1)C1CC2C=CC1C2 (stereo not given) [BIPERIDEN] | Compound NOT metabolized |
| CC(C)(C#N)c1cc(Cn2cncn2)cc(C(C)(C)C#N)c1 [ANASTROZOLE] | Compound metabolized |
| CN1C(=O)CCS(=O)(=O)C1c1ccc(Cl)cc1 (stereo not given) [CHLORMEZANONE] | Compound NOT metabolized |

Assay: The drug is tested on Providencia rettgeri strain: DSM1131 for biotransformation. The drug concentrations were measured before and after a 12-h incubation by liquid-chromatography-coupled mass spectrometry (LC–MS)
Assay type: ADME
Set-up: dose 2 uM, timepoint 0 vs 12 hours
Conditions: 2 µM

| Compound | Bacterial Biotransformation |
| --- | --- |
| CCC1(c2ccc(N)cc2)CCC(=O)NC1=O (stereo not given) [AMINOGLUTETHIMIDE] | Compound NOT metabolized |
| OC(CCN1CCCCC1)(c1ccccc1)C1CC2C=CC1C2 (stereo not given) [BIPERIDEN] | Compound NOT metabolized |

Assay: The drug is tested on Bacteroides finegoldii strain: DSM17565 for biotransformation. The drug concentrations were measured before and after a 12-h incubation by liquid-chromatography-coupled mass spectrometry (LC–MS)
Conditions: 2 µM

| Compound | Bacterial Biotransformation |
| --- | --- |
| CCC1(c2ccc(N)cc2)CCC(=O)NC1=O (stereo not given) [AMINOGLUTETHIMIDE] | Compound NOT metabolized |
| OC(CCN1CCCCC1)(c1ccccc1)C1CC2C=CC1C2 (stereo not given) [BIPERIDEN] | Compound NOT metabolized |
| CC(C)(C#N)c1cc(Cn2cncn2)cc(C(C)(C)C#N)c1 [ANASTROZOLE] | Compound NOT metabolized |
| CN1C(=O)CCS(=O)(=O)C1c1ccc(Cl)cc1 (stereo not given) [CHLORMEZANONE] | Compound NOT metabolized |

Assay: The drug is tested on Bacteroides fragilis strain: HMW615 for biotransformation. The drug concentrations were measured before and after a 12-h incubation by liquid-chromatography-coupled mass spectrometry (LC–MS)
Conditions: 2 µM

| Compound | Bacterial Biotransformation |
| --- | --- |
| CCC1(c2ccc(N)cc2)CCC(=O)NC1=O (stereo not given) [AMINOGLUTETHIMIDE] | Compound NOT metabolized |
| OC(CCN1CCCCC1)(c1ccccc1)C1CC2C=CC1C2 (stereo not given) [BIPERIDEN] | Compound NOT metabolized |
| CC(C)(C#N)c1cc(Cn2cncn2)cc(C(C)(C)C#N)c1 [ANASTROZOLE] | Compound NOT metabolized |
| CN1C(=O)CCS(=O)(=O)C1c1ccc(Cl)cc1 (stereo not given) [CHLORMEZANONE] | Compound NOT metabolized |

Assay: The drug is tested on Clostridium scindens strain: ATCC35704 for biotransformation. The drug concentrations were measured before and after a 12-h incubation by liquid-chromatography-coupled mass spectrometry (LC–MS)
Conditions: 2 µM

| Compound | Bacterial Biotransformation |
| --- | --- |
| CCC1(c2ccc(N)cc2)CCC(=O)NC1=O (stereo not given) [AMINOGLUTETHIMIDE] | Compound NOT metabolized |
| OC(CCN1CCCCC1)(c1ccccc1)C1CC2C=CC1C2 (stereo not given) [BIPERIDEN] | Compound NOT metabolized |
| CC(C)(C#N)c1cc(Cn2cncn2)cc(C(C)(C)C#N)c1 [ANASTROZOLE] | Compound NOT metabolized |
| CN1C(=O)CCS(=O)(=O)C1c1ccc(Cl)cc1 (stereo not given) [CHLORMEZANONE] | Compound NOT metabolized |

Assay: The drug is tested on Eubacterium hallii strain: DSM3353 for biotransformation. The drug concentrations were measured before and after a 12-h incubation by liquid-chromatography-coupled mass spectrometry (LC–MS)
Conditions: anaerobutyricum hallii, 2 µM

| Compound | Bacterial Biotransformation |
| --- | --- |
| CCC1(c2ccc(N)cc2)CCC(=O)NC1=O (stereo not given) [AMINOGLUTETHIMIDE] | Compound NOT metabolized |
| OC(CCN1CCCCC1)(c1ccccc1)C1CC2C=CC1C2 (stereo not given) [BIPERIDEN] | Compound NOT metabolized |
| CC(C)(C#N)c1cc(Cn2cncn2)cc(C(C)(C)C#N)c1 [ANASTROZOLE] | Compound NOT metabolized |
| CN1C(=O)CCS(=O)(=O)C1c1ccc(Cl)cc1 (stereo not given) [CHLORMEZANONE] | Compound NOT metabolized |
